# What was measured:
# [1] = biological target: T1, rat uterine nuclear estrogen receptor (Rattus norvegicus, UniProt P06211); conditions: cited from earlier work
# T1 construct: host or cells: rat uterus (cytosol and nuclear fractions), Martucci et al. 1976
# T1 sequence (P06211 1-600): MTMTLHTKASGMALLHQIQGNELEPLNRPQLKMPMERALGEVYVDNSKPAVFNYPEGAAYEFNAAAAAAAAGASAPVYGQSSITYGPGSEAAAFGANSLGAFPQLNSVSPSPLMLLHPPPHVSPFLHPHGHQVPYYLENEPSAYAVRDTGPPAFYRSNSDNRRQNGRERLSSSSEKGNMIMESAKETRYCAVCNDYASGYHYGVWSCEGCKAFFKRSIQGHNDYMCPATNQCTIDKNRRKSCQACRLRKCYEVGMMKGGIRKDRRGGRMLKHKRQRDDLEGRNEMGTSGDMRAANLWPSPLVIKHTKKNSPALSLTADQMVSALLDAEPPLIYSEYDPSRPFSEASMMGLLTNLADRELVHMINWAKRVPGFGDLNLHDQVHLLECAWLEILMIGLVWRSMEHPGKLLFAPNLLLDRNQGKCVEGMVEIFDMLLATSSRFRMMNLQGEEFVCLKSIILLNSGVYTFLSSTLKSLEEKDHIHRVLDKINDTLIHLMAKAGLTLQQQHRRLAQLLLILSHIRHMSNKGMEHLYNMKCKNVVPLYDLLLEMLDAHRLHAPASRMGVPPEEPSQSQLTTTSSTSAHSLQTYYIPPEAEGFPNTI
# OVX-rats = assay: Indentation test of distal femur (bone biomechanical strength), OVX rat; type: in vivo; conditions: 4 weeks; for Energy / Maximum load / Stiffness / Ultimate strength: po, distal femur
# Protocol: The ovariectomized aged rat was used as a model for the human disease osteoporosis. This is an established animal model, recommended by the United States Food and Drug Administration (FDA), to evaluate and assess potential agents for osteoporosis prevention and therapy. The anti-resorptive efficacy of estetrol (E4) was tested by ex vivo measuring total and trabecular bone mineral density and bone strength after 4 weeks of treatment at necropsy. 17α-ethinyl-estradiol (EE) and vehicle (1% ethanol/arachidis oil) served as controls in this bioassay.
# Three months old female Sprague-Dawley rats were either sham-operated (Sham) or ovariectomized (OVX) one day prior to commencement of the dosing study. Animals were anesthetized using a ketamine/xylazine anesthetic mixture and underwent a bilateral ovariectomy or were sham-treated. A section of hair on the dorsal surface was shaved and an incision made overlying the lumbar region of the spine. The skin was separated from the underlying fascia so that a second incision could be made through the abdominal musculature approximately caudal to the kidneys. The ovaries were then exteriorized and removed and the musculature was closed with a single suture. The skin incision was closed using surgical staples.
# Ten animals per treatment group were orally dosed once per day for four consecutive weeks. The dosing commenced 1 day after surgical removal of the ovaries and was administered by oral gavage using a syringe and stainless steel gavage needle at doses of 0.1 mg/kg /day EE, or either 2.5, 0.5 or 0.1 mg/kg/day E4. Vehicle control was daily administered to one group of OVX-animals and sham-operated rats. After treatment, anesthetized rats were subjected to cardiac puncture and asphyxiated by CO2 inhalation. Tibiae and femura were removed, cleaned of soft-tissue and fixed and stored in 70% ethanol/saline at 4° C. (tibia) or saline at 4° C. (femura) until fuirther analysis.
# Ex vivo evaluation of bone biomechanical strength was performed with an indentation test at the distal femura. Prior to mechanical testing femura were rinsed in cold saline and carefully cleaned of any remaining adherent soft tissue. A 3-mm segment of the distal femoral metaphysis was cut directly proximal to the femoral condyle with a low-speed diamond saw under constant saline irrigation. The load was applied with a cylindrical indenter (with a flat testing face of 1.6 mm diameter) to the center of marrow cavity on the distal face of the segment. The indenter was allowed to penetrate the cavity at a constant displacement of 6 mm/min to a depth of 2 mm before load reversal.
# The maximum load, stiffness and energy absorbed were determined from load displacement curves. Ultimate strength was calculated by dividing the maximum load by the indenter area. Furthermore, mean ultimate strength values are depicted in FIG. 2. […] Reductions in maximum load, stiffness, energy and ultimate strength were −68%, −68%, −27% and −68%, respectively, clearly accompanying the bone mineral density loss in estrogen deficient rats.
# ovariectomized rats = assay: Vaginal cornification bioassay in ovariectomized rats, 7 days, sc or po; type: in vivo, rat
# Excerpt: Uterine weight increase in the rat is more commonly used as a measure of estrogenicity. […] In the early 1920s it was discovered that follicular fluid from the pig ovary contained a factor(s) that caused cornification/keratinization of the vaginal epithelium in the rat (Allen and Doisy, 1923, JAMA, 81, 819-821; Allen and Doisy, 1924, Am. J. Physiol., 69, 577-588). The so-called vaginal cornification response in rats subsequently provided a bioassay for testing estrogenicity. Vaginal epithelial cornification/keratinization in ovariectomized rats can be produced only by compounds considered to be true estrogens (Jones et al, 1973, Fert. Steril. 24, 284-291). […] Adult intact female CD rats were ovariectomized to induce estrogen deficiency. […] Castrate vaginal smears are indicative that complete ovariectomy was achieved. Treatment commenced following completion of the 7 days of smearing (day 0=first day of dosing). Animals were dosed, once daily for 7 consecutive days. Daily vaginal lavages continued to be obtained for 7 days after dosing was initiated in order to detect vaginal cornification, as an indication of an estrogenic response. A drop of vaginal washings was placed on a glass slide and examined by light microscopy to detect the presence or absence of cornified epithelial cells. Vaginal lavages were obtained prior to dosing on days 0-6 and prior to necropsy on day 7. […]
smiles,measurement,setting,value
"C[C@]12CC[C@@H]3c4ccc(O)cc4CC[C@H]3[C@@H]1[C@@H](O)[C@@H](O)[C@@H]2O [E4, 1,3,5 (10)-estratrien-3,15α,16α,17β-tetrol]","relative binding affinity, 17β-estradiol = 100%",[1],0.3%
same,"effect on declines in maximum load, stiffness, energy and ultimate strength","OVX-rats; oral treatment, dose-dependent","prevented the declines in maximum load, stiffness, energy and ultimate strength"
same,Energy,OVX-rats; 0.1 mg/kg/day,0.09 mJ
same,Maximum load,OVX-rats; 0.1 mg/kg/day,1.50 N
same,Stiffness,OVX-rats; 0.1 mg/kg/day,28.00 N/mm
same,Ultimate strength,OVX-rats; 0.1 mg/kg/day,0.80 N/mm2
same,Energy,OVX-rats; 0.5 mg/kg/day,0.31 mJ
same,Maximum load,OVX-rats; 0.5 mg/kg/day,7.25 N
same,Stiffness,OVX-rats; 0.5 mg/kg/day,132.57 N/mm
same,Ultimate strength,OVX-rats; 0.5 mg/kg/day,3.85 N/mm2
same,Number of Rats Exhibiting Estrogenic Response/Number of Rats Treated,"ovariectomized rats; 1.0 mg/kg/day, Day 7, 1 mg/kg/day",all rats
same,Number of Rats Exhibiting Estrogenic Response/Number of Rats Treated,"ovariectomized rats; 3.0 mg/kg/day, Day 7, 3 mg/kg/day",all rats

# — patent publication US8048869B2, “Pharmaceutical composition for use in hormone replacement therapy” (Pantarhei Bioscience B.V., priority 2001, dated 2011)
